Assay results taken from US11667649B2, “Heteroaromatic macrocyclic ether chemotherapeutic agents” (Nuvalent, Inc., priority 2020, dated 2023).

System: TPM3-NTRK1-wt IC50 / primary target (e.g. CD74-ROS1-wt) IC50, Ba/F3 cells
Assay: Cell assay TRKA selectivity (TRKA potency divided by primary target potency)
Type: cell-based
Conditions: for TPM3-NTRK1-wt/CD74-ROS1-G2032R: TRKA selectivity ratio: TPM3-NTRK1-wt IC50 / CD74-ROS1-G2032R IC50, Ba/F3 cells; for TPM3-NTRK1-wt/CD74-ROS1-wt: TRKA selectivity ratio: TPM3-NTRK1-wt IC50 / CD74-ROS1-wt IC50, Ba/F3 cells; for TPM3-NTRK1-wt/EML4-ALK-L1196M-G1202R: TRKA selectivity ratio: TPM3-NTRK1-wt IC50 / EML4-ALK-L1196M-G1202R IC50, Ba/F3 cells; for TPM3-NTRK1-wt/EML4-ALK-wt: TRKA selectivity ratio: TPM3-NTRK1-wt IC50 / EML4-ALK-wt IC50, Ba/F3 cells
Summary of the method: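 IL-3-independent Ba/F3 lines stably expressing TPM3-TRKA or the primary fusion (e.g. CD74-ROS1 wt) were exposed to 3-fold compound dilutions for 72 h. Viability was read by CellTiter-Glo luminescence, with IC50 from four-parameter logistic fit. Selectivity is TPM3-NTRK1 IC50 divided by primary-target IC50, binned A (>30-fold) to D (<1).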

Row | Structure (SMILES) | TPM3-NTRK1-wt/CD74-ROS1-G2032R | TPM3-NTRK1-wt/CD74-ROS1-wt | TPM3-NTRK1-wt/EML4-ALK-L1196M-G1202R | TPM3-NTRK1-wt/EML4-ALK-wt
1 | CCn1ncc2c1-c1cnc(N)c(c1)O[C@H](C)c1cc(F)ccc1-n1nc(OC)cc1C2 [Example 98, (19R)-3-ethyl-16-fluoro-10-methoxy-19-methyl-20-oxa-3,4,11,12,23-pentaazapentacyclo[19.3.1.0^2,^6.0^8,^12.0^13,^18]pentacosa-1(24),2(6),4,8,10,13,15,17,21(25),22-decaen-22-amine] | A (bin A for very high selectivity, ratio>30-fold) | A (bin A for very high selectivity, ratio>30-fold) | C (bin C for moderate selectivity, ratio≥1) | B (bin B for high selectivity, ratio>10-fold)
2 | C[C@H]1Oc2cc(cnc2N)-c2c(c(C#N)nn2CC2CC2)Cc2cccnc2-c2ccc(F)cc21 [Example 123, (20R)-23-amino-3-(cyclopropylmethyl)-17-fluoro-20-methyl-21-oxa-3,4,12,24-tetraazapentacyclo[20.3.1.0^2,^6.0^8,^13.0^14,^19]hexacosa-1(25),2(6),4,8(13),9,11,14,16,18,22(26),23-undecaene-5-carbonitrile] | C (bin C for moderate selectivity, ratio≥1) | A (bin A for very high selectivity, ratio>30-fold) | C (bin C for moderate selectivity, ratio≥1) | A (bin A for very high selectivity, ratio>30-fold)
3 | C[C@H]1Oc2cc(cnc2N)-c2c(C#N)nn(C)c2Cc2csnc2-c2ccc(F)cc21 [Example 143, (19R)-22-amino-16-fluoro-5,19-dimethyl-20-oxa-10-thia-4,5,11,23-tetraazapentacyclo[19.3.1.0^2,^6.0^8,^12.0^13,^18]pentacosa-1(24),2(6),3,8,11,13,15,17,21(25),22-decaene-3-carbonitrile] | A (bin A for very high selectivity, ratio>30-fold) | A (bin A for very high selectivity, ratio>30-fold) | B (bin B for high selectivity, ratio>10-fold) | A (bin A for very high selectivity, ratio>30-fold)
4 | C[C@H]1Oc2cc(cnc2N)-c2c(C#N)ncn2Cc2cc(F)cnc2-c2ccc(F)cc21 [Example 63, (20R)-23-amino-10,17-difluoro-20-methyl-21-oxa-4,6,12,24-tetraazapentacyclo[20.3.1.0^2,^6.0^8,^13.0^14,^19]hexacosa-1(25),2,4,8,10,12,14(19),15,17,22(26),23-undecaene-3-carbonitrile] | A (bin A for very high selectivity, ratio>30-fold) | A (bin A for very high selectivity, ratio>30-fold) | B (bin B for high selectivity, ratio>10-fold) | A (bin A for very high selectivity, ratio>30-fold)
5 | C[C@H]1Oc2cc(cnc2N)-c2c(C#N)cnn2Cc2ccnn2-c2ccc(F)cc21 [Example 58, (19R)-22-amino-16-fluoro-19-methyl-20-oxa-4,6,11,12,23-pentaazapentacyclo[19.3.1.0^2,^6.0^8,^12.0^13,^18]pentacosa-1(24),2,4,8,10,13,15,17,21(25),22-decaene-3-carbonitrile] | A (bin A for very high selectivity, ratio>30-fold) | A (bin A for very high selectivity, ratio>30-fold) | B (bin B for high selectivity, ratio>10-fold) | A (bin A for very high selectivity, ratio>30-fold)
6 | CCn1ncc2c1-c1cnc(N)c(c1)O[C@H](C)c1cc(F)ccc1-n1nc(Br)cc1C2 [Example 80, (19R)-10-bromo-3-ethyl-16-fluoro-19-methyl-20-oxa-3,4,11,12,23-pentaazapentacyclo[19.3.1.0^2,^6.0^8,^12.0^13,^18]pentacosa-1(24),2(6),4,8,10,13,15,17,21(25),22-decaen-22-amine] | A (bin A for very high selectivity, ratio>30-fold) | A (bin A for very high selectivity, ratio>30-fold) | B (bin B for high selectivity, ratio>10-fold) | A (bin A for very high selectivity, ratio>30-fold)
7 | Cc1cc2n(n1)-c1ccc(F)cc1[C@@H](C)Oc1cc(cnc1N)-c1c(cnn1CC1CC1)C2 [Example 109, (19R)-3-(cyclopropylmethyl)-16-fluoro-10,19-dimethyl-20-oxa-3,4,11,12,23-pentaazapentacyclo[19.3.1.0^2,^6.0^8,^12.0^13,^18]pentacosa-1(24),2(6),4,8,10,13,15,17,21(25),22-decaen-22-amine] | A (bin A for very high selectivity, ratio>30-fold) | A (bin A for very high selectivity, ratio>30-fold) | A (bin A for very high selectivity, ratio>30-fold) | A (bin A for very high selectivity, ratio>30-fold)
8 | C[C@H]1Oc2cc(cnc2N)-c2c(nn(C)c2CC2CC2)Cc2cn(C)nc2-c2ccc(F)cc21 [Example 179, (19R)-3-(cyclopropylmethyl)-16-fluoro-4,10,19-trimethyl-20-oxa-4,5,10,11,23-pentaazapentacyclo[19.3.1.0^2,^6.0^8,^12.0^13,^18]pentacosa-1(24),2,5,8,11,13,15,17,21(25),22-decaen-22-amine] | A (bin A for very high selectivity, ratio>30-fold) | A (bin A for very high selectivity, ratio>30-fold) | A (bin A for very high selectivity, ratio>30-fold) | A (bin A for very high selectivity, ratio>30-fold)
9 | CCn1ncc2c1-c1cnc(N)c(c1)OC(C)c1cc(F)ccc1-c1ccncc1C2 (stereo not shown) [Example 36, 3-ethyl-17-fluoro-20-methyl-21-oxa-3,4,10,24-tetraazapentacyclo[20.3.1.0^2,^6.0^8,^13.0^14,^19]hexacosa-1(25),2(6),4,8(13),9,11,14,16,18,22(26),23-undecaen-23-amine] | A (bin A for very high selectivity, ratio>30-fold) | A (bin A for very high selectivity, ratio>30-fold) | C (bin C for moderate selectivity, ratio≥1) | A (bin A for very high selectivity, ratio>30-fold)
10 | CCn1ncc2c1-c1cnc(N)c(c1)O[C@H](C)c1cc(F)ccc1-n1nc(C#N)cc1C2 [Example 51, (19R)-22-amino-3-ethyl-16-fluoro-19-methyl-20-oxa-3,4,11,12,23-pentaazapentacyclo[19.3.1.0^2,^6.0^8,^12.0^13,^18]pentacosa-1(24),2(6),4,8,10,13,15,17,21(25),22-decaene-10-carbonitrile] | C (bin C for moderate selectivity, ratio≥1) | C (bin C for moderate selectivity, ratio≥1) | C (bin C for moderate selectivity, ratio≥1) | D (bin D for low selectivity, ratio<1)
